biological target: T1, His-tagged Mutant B-Raf (V600E) enzyme (MT B-Raf) (Homo sapiens, UniProt P15056, V600E); test: B-Raf in-vitro AlphaScreen assay; type: biochemical; conditions: phosphorylation of biotinylated HIS-MEK-AVI, 0.12 nM MT B-Raf, 24 μM ATP in mix
T1 construct: purified full length His-tagged Mutant B-Raf (V600E) enzyme; made in house; host or cells: insect cells
Procedure: B-Raf in-Vitro AlphaScreen Assay
Activity of purified full length His-tagged Mutant B-Raf (V600E) enzyme (MT B-Raf) was determined in-vitro using an Amplified Luminescent Proximity Homogeneous Assay (ALPHA)(Perkin Elmer, Mass.), which measures phosphorylation of the MT B-Raf substrate, biotinylated HIS-MEK-AVI (PLAZA internal database, construct #pAZB0141), as described below. MT B-Raf was expressed in insect cells and affinity purified by Ni^+2 agarose followed by Q-Sepharose chromatography. Typical yield was 1.08 mg/ml at >90% purity. The phosphorylation of the MT B-Raf substrate in the presence and absence of the compound of interest was determined. Briefly, 5 μl of enzyme/substrate/adenosine triphosphate (ATP) mix consisting of 0.12 nM MT B-Raf, 84 nM biotinylated HIS-MEK-AVI, and 24 μM ATP in 1.2× buffer was preincubated with 2 ul of compound for 20 minutes at 25° C. Reactions were initiated with 5 μl of Metal mix consisting of 24 mM MgCl2 in 1.2× buffer and incubated at 25° C. for 60 minutes and reactions were stopped by addition of 5 μl of Detection mix consisting of 20 mM HEPES, 102 mM ethylenediamine tetraacetic acid, 1.65 mg/ml BSA, 136 mM NaCl, 3.4 nM Phospho-MEK1/2 (Ser217/221) antibody (Catalog #9121, Cell Signaling Technology, MA), 40 μg/ml Streptavidin donor beads (Perkin Elmer, MA, Catalog #6760002), and 40 μg/ml Protein A acceptor beads (Perkin Elmer, MA, Catalog #6760137). Plates were incubated at 25° C. for 18 hours in the dark. Phosphorylated substrate was detected by an EnVision plate reader (Perkin Elmer, MA) 680 nm excitation, 520-620 nm emission. Data was graphed and IC50s calculated using Excel Fit (Microsoft).

T1 sequence (P15056 whole entry V600E): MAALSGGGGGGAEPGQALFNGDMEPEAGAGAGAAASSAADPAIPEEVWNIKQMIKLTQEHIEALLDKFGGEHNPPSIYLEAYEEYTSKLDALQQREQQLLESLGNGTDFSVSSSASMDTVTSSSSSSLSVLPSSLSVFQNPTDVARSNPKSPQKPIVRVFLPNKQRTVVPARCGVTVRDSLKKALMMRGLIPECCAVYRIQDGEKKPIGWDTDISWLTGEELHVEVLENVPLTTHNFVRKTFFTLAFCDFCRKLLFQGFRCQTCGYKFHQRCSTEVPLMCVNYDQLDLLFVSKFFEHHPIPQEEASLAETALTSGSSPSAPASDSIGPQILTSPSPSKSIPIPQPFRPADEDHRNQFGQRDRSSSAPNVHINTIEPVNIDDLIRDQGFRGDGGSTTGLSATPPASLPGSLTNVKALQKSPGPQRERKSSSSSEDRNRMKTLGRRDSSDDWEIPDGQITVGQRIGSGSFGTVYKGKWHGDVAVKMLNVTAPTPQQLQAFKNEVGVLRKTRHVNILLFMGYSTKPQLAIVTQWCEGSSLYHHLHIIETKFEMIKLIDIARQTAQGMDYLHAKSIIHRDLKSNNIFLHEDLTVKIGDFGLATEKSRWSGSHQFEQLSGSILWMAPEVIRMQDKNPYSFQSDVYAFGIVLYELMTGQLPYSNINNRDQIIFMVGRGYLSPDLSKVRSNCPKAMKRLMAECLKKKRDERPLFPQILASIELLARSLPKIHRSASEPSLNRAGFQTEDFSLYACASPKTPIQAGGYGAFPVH

IC50 [nM]	SMILES
287	Cn1cnc2ccc(Oc3ccc(NC(=O)Nc4ccc(Cl)c(C(F)(F)F)c4)cc3)cc2c1=O [Example 1, N-[4-Chloro-3-(trifluoromethyl)phenyl]-N′-{-4-[(3-methyl-4-oxo-3,4-dihydroquinazolin-6-yl)oxy]phenyl}urea]
205	Cc1cc(NC(=O)Nc2ccc(Cl)c(C(F)(F)F)c2)ccc1Oc1ccc2ncn(C)c(=O)c2c1 [Example 3, N-[4-Chloro-3-(trifluoromethyl)phenyl]-N′-{3-methyl-4-[(3-methyl-4-oxo-3,4-dihydroquinazolin-6-yl)oxy]phenyl}urea]
340	Cn1cnc2ccc(Oc3ccc(NC(=O)Nc4cccc(C(F)(F)F)c4F)cc3)cc2c1=O [Example 7, N-[2-Fluoro-3-(trifluoromethyl)phenyl]-N′-{4-[(3-methyl-4-oxo-3,4-dihydroquinazolin-6-yl)oxy]phenyl}urea]
